Source: patent US8685999B2, “Beta carboline sulphonylurea derivatives as EP4 receptor antagonists” (Merck Sharp & Dohme Corp., priority 2008, dated 2014)
Like-named read-outs stand apart in the source and are kept apart here.

Biological target: T1, EP4 (Homo sapiens, UniProt P35408)
T1 construct: expressed in transfected cells; membranes prepared by differential centrifugation
Test: Prostanoid receptor binding assay (radioligand displacement binding assay)
Procedure: Prostanoid receptor cDNAs corresponding to full length coding sequences are subcloned into the appropriate sites of mammalian expression vectors and transfected into HEK 293(ebna) cells. HEK 293(ebna) cells expressing the individual cDNAs are grown under selection and individual colonies are isolated after 2-3 weeks of growth using the cloning ring method and subsequently expanded into clonal cell lines.
Transfected HEK 293(ebna) cells are maintained in culture, harvested and membranes are prepared by differential centrifugation, following lysis of the cells in the presence of protease inhibitors, for use in receptor binding assays. Prostanoid receptor binding assays (for DP1, DP2 (CRTH2), EP1, EP2, EP3-III, EP4, FP, IP, and TP) are performed in 10 mM MES/KOH (pH 6.0) (EPs, FP and TP) or 10 mM HEPES/KOH (pH 7.4) (DPs and IP), containing 1 mM EDTA, 2.5-30 mM divalent cation and the appropriate radio-ligand. Synthetic compounds are added in DMSO which is kept constant at 1% (v/v) in all incubations. The reaction is initiated by addition of membrane protein. Non-specific binding is determined in the presence of 10 μM of the corresponding non-radioactive prostanoid. Incubations are conducted for 60-120 min at room temperature or 30° C. and terminated by rapid filtration. Specific binding is calculated by subtracting non specific binding from total binding. The residual specific binding at each ligand concentration is calculated and expressed as a function of ligand concentration in order to construct sigmoidal concentration-response curves. The binding affinity of the compounds is determined by calculating the equilibrium inhibition constant (Ki) from the equation Ki=InPt/1+[radio-ligand]/Kd where Kd is the equilibrium dissociation constant for the radio-ligand:receptor interaction and InPt is the inflection point of the dose-response curves.
Abramovitz, M. et al., Biochem, Biophys. Acta, 2000, 1483, pp. 285.

[1] = column marked X when IC50 < 1, read-out: IC50 (nm) X < 1
[2] = column marked X when IC50 between 1 and 5, read-out: IC50 (nm) 1 < X < 5
[3] = radioligand displacement binding assay, read-out: IC50

T1 sequence (P35408 whole entry): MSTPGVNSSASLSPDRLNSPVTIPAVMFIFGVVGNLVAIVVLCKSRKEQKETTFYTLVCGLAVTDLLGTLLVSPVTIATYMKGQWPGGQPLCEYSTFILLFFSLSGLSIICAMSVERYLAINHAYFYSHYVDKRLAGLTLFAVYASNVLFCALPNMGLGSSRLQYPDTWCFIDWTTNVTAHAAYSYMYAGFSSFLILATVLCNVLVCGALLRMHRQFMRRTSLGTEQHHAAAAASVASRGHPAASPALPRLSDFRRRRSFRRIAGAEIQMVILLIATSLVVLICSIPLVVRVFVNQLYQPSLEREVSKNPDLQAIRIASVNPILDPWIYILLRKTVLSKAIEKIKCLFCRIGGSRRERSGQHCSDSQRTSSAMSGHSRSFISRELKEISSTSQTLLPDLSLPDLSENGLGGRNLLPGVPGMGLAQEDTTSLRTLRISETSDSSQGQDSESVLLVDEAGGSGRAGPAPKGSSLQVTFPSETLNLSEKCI

SMILES | IC50 [1] | IC50 [3] | also measured
CN1CCc2c(n(-c3ccc(CCNC(=O)NS(=O)(=O)c4ccc(Cl)cc4)cc3)c3ccc(C4CC4)cc23)C1=O [Example 2-2, 4-chloro-N-[({2-[4-(6-cyclopropyl-2-methyl-1-oxo-1,2,3,4-tetrahydro-9H-beta-carbolin-9-yl)phenyl]ethyl}amino)carbonyl]benzenesulfonamide] | < 1 nM | – | –
CN1CCc2c(n(-c3ccc(CCNC(=O)NS(=O)(=O)c4ccc(Cl)cc4)cc3)c3cc(Cl)ccc23)C1=O [Example 1-12, 4-chloro-N-[({2-[4-(7-chloro-2-methyl-1-oxo-1,2,3,4-tetrahydro-9H-beta-carbolin-9-yl)phenyl]ethyl}amino)carbonyl]benzenesulfonamide] | < 1 nM | – | –
CN1CCc2c(n(-c3ccc(CC4(NC(=O)NS(=O)(=O)c5c(Cl)cccc5Cl)CC4)cc3)c3ccc(-c4ccccc4)cc23)C1=O [Example 1-29, 2,6-dichloro-N-[({1-[4-(2-methyl-1-oxo-6-phenyl-1,2,3,4-tetrahydro-9H-beta-carbolin-9-yl)benzyl]cyclopropyl}amino)carbonyl]benzenesulfonamide] | < 1 nM | – | –
CN1CCc2c(n(-c3ccc(CCNC(=O)NS(=O)(=O)c4ccc(Cl)cc4)cc3)c3cc(-c4ccccc4)ccc23)C1=O [Example 1-18, 4-chloro-N-[({2-[4-(2-methyl-1-oxo-7-phenyl-1,2,3,4-tetrahydro-9H-beta-carbolin-9-yl)phenyl]ethyl}amino)carbonyl]benzenesulfonamide] | – | > 5 nM | IC50 (column marked X when IC50 > 5, read-out: IC50 (nm) X > 5): > 5 nM
CN1CCc2c(n(-c3ccc(CCNC(=O)NS(=O)(=O)c4ccc(Cl)cc4)cc3)c3ccc(Br)cc23)C1=O [Example 1-5, N-[({2-[4-(6-bromo-2-methyl-1-oxo-1,2,3,4-tetrahydro-9H-beta-carbolin-9-yl)phenyl]ethyl}amino)carbonyl]-4-chlorobenzenesulfonamide] | < 1 nM | – | –
CN1CCc2c(n(-c3ccc(CC4(NC(=O)NS(=O)(=O)c5ccc(Cl)cc5)CC4)cc3)c3ccc(-c4cccnc4)cc23)C1=O [Example 1-24, 4-chloro-N-[({1-[4-(2-methyl-1-oxo-6-pyridin-3-yl-1,2,3,4-tetrahydro-9H-beta-carbolin-9-yl)benzyl]cyclopropyl}amino)carbonyl]benzenesulfonamide] | < 1 nM | – | –

More lines, main results first:

IC50 [1] | IC50 [3] | SMILES | also measured
< 1 nM | – | COC(=O)c1ccc2c(c1)c1c(n2-c2ccc(CC3(NC(=O)NS(=O)(=O)c4ccc(Cl)cc4)CC3)cc2)C(=O)N(C)CC1 [Example 3-2, methyl 9-[4-({1-[({[(4-chlorophenyl)sulfonyl]amino}carbonyl)amino]cyclopropyl}methyl)phenyl]-2-methyl-1-oxo-2,3,4,9-tetrahydro-1H-beta-carboline-6-carboxylate] | –
– | 1 to 5 nM | CN1CCc2c(n(-c3ccc(CC4(NC(=O)NS(=O)(=O)c5ccc(Cl)cc5)CC4)cc3)c3ccc(-c4ccccc4)cc23)C1=O [Example 1-1, 4-chloro-N-[({1-[4-(2-methyl-1-oxo-6-phenyl-1,2,3,4-tetrahydro-9H-beta-carbolin-9-yl)benzyl]cyclopropyl}amino)carbonyl]benzenesulfonamide] | IC50 [2]: 1 to 5 nM
– | 1 to 5 nM | CN1CCc2c(n(-c3ccc(CCNC(=O)NS(=O)(=O)c4ccc(Cl)cc4)cc3)c3cc(S(C)(=O)=O)ccc23)C1=O [Example 1-32, 4-chloro-N-{[(2-{4-[2-methyl-7-(methylsulfonyl)-1-oxo-1,2,3,4-tetrahydro-9H-beta-carbolin-9-yl]phenyl}ethyl)amino]carbonyl}benzenesulfonamide] | IC50 [2]: 1 to 5 nM
< 1 nM | – | CN1CCc2c(n(-c3ccc(CC4(NC(=O)NS(=O)(=O)c5ccc(Cl)cc5)CC4)cc3)c3ccc(-c4ccsc4)cc23)C1=O [Example 1-25, 4-chloro-N-{[(1-{4-[2-methyl-1-oxo-6-(3-thienyl)-1,2,3,4-tetrahydro-9H-beta-carbolin-9-yl]benzyl}cyclopropyl)amino]carbonyl}benzenesulfonamide] | –
